Experimental findings from the NIST ThermoML archive (doi:10.1021/je1011339) are described below.

SMILES strings stand for the structures. Numbers after ± are expanded uncertainties.

The nature of data set [1]: refractive index (Na D-line) (dimensionless). The note with it: 298.15 K; 101.33 kPa; Liquid; Standard Abbe refractometry.
For data set [2] the following is noted: 298.15 K; 101.33 kPa; Liquid; Vibrating tube method.

Regarding `C=CC(C)(O)CCC=C(C)C` (stereo not given) [3,7-dimethyl-1,6-octadien-3-ol], the refractive index (commonly a measure of how strongly the sample bends light) in data set [1] was found to be 1.45961 ± 0.00068. For the same molecule, the mass density (usually the mass of a sample divided by its volume) in data set [2] is 856.83 ± 1.4 kg/m3.
Take `CCCCCC[n+]1ccn(C)c1.O=S(=O)([N-]S(=O)(=O)C(F)(F)F)C(F)(F)F`: the refractive index in data set [1] is on record as 1.42879 ± 0.00033. Besides, the mass density in data set [2] was 1372.09 ± 0.28 kg/m3.
For `CCn1cc[n+](C)c1.O=S(=O)([N-]S(=O)(=O)C(F)(F)F)C(F)(F)F` the same measures were 1.42298 ± 0.00068 and 1518.91 ± 0.36 kg/m3.
For `CCCCCCCCCCn1cc[n+](C)c1.O=S(=O)([N-]S(=O)(=O)C(F)(F)F)C(F)(F)F` the same measures were 1.43584 ± 0.00033 and 1278.4 ± 0.23 kg/m3.
For `C=C(C)[C@H]1CC=C(C)CC1` [(R)-1-methyl-4-(1-methylethenyl)cyclohexene] the same measures were 1.47081 ± 0.00068 and 838.68 ± 1.4 kg/m3.
